Data reported in ChEMBL document CHEMBL1136364, “Synthesis and antimalarial activity of 2-methoxyprop-2-yl peroxides derivatives” (Bioorg Med Chem Lett, 2003).

These molecules were tested on Plasmodium falciparum (assay: In vitro antimalarial activity against Plasmodium falciparum FCR3).
Format: functional, organism-based

Going from `CCOC(=O)CCCOOC(C)(C)OC` to `CCCCCCOOC(C)(C)OC`, the IC50 falls from 6950 nM to 1550 nM (4.5-fold). The second is the more potent here.

Compared with `COC(C)(C)OOCCC(C)C`, `COCCOOC(C)(C)OC` is 1.9-fold higher in IC50: 1650 nM for the first, 3200 nM for the second.

Compared with `CCCCCCCCCCCCCCCCCCOOC(C)(C)OC`, `CCCCCCCCCCCCCCCCOOC(C)(C)OC` is 3-fold lower in IC50: 1330 nM for the first, 440 nM for the second. The second is the more potent here.

Going from `CCCCCCCCCCCCOOC(C)(C)OC` to `CCCCCCCCOOC(C)(C)OC`, the IC50 rises from 670 nM to 2600 nM (3.9-fold).

`COC(C)(C)OOCCCOc1ccccc1` and `COC(C)(C)OOCCCc1ccccc1` are within 1.5-fold of each other in IC50: 870 nM for the first, 660 nM for the second.

`COC(C)(C)OOCCCCC1=CC[C@H]2C[C@@H]1C2(C)C` and `COC(C)(C)OOCCCC1=CC[C@H]2C[C@@H]1C2(C)C` are within 1.5-fold of each other in IC50: 480 nM for the first, 600 nM for the second.

First: COC(C)(C)OOCCc1ccccc1
Second: COC(C)(C)OOCCCC#N
The IC50 of the first is 25-fold lower: 520 nM for the first, 12800 nM for the second.

First: COC(C)(C)OOCCC1=CC[C@H]2C[C@@H]1C2(C)C
Second: CCCCCCCOOC(C)(C)OC
The IC50 of the first is 2.2-fold lower: 370 nM for the first, 800 nM for the second.

Compared with `CO[C@H]1O[C@@H]2O[C@@]3(C)CC[C@H]4[C@H](C)CC[C@@H]([C@H]1C)[C@@]24OO3` [ARTEMETHER], `C[C@@H]1CC[C@H]2[C@@H](C)C(=O)O[C@@H]3O[C@@]4(C)CC[C@@H]1[C@]32OO4` [ARTEMISININ] is 3.9-fold higher in IC50: 14 nM for the first, 55 nM for the second. The first is the more potent here.
